According to the supplement of paper PMC10307832:

How the values were obtained:
Experiment in all cases: relative viability (nuclei count vs DMSO), 5 days (fraction); higher = more cells survive
[1] = test system: RERF-LC-KJ
Outline: (§1)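 Lung cancer cell lines were pin-tool dosed in 1536-well plates on the day after seeding, with either a lone drug or a fixed anchor-drug dose plus five library-drug doses (not always all listed) in √10 steps. Nuclei were counted on 4× images after 5 days. Relative viability is the ratio of treated-well to vehicle-well nuclei counts, with each value a median of duplicate plates.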

[2] = test system: CAL-12T
Outline: as §1

[3] = test system: NCI-H1437
Outline: as §1

[4] = test system: PC-3 [JPC-3]
Outline: as §1

[5] = test system: UMC-11
Outline: as §1

[6] = test system: NCI-H596
Outline: as §1

[7] = test system: SK-LU-1
Outline: as §1

[8] = test system: NCI-H1563
Outline: as §1

[9] = test system: NCI-H1734
Outline: as §1

[10] = test system: NCI-H1755
Outline: as §1

[11] = test system: EMC-BAC-2
Outline: as §1

[12] = test system: HOP-62
Outline: as §1

[13] = test system: NCI-H441
Outline: as §1

[14] = test system: NCI-H3122
Outline: as §1

[15] = test system: HARA
Outline: as §1

[16] = test system: LK-2
Outline: as §1

[17] = test system: NCI-H1651
Outline: as §1

[18] = test system: NCI-H727
Outline: as §1

[19] = test system: NCI-H2347
Outline: as §1

[20] = test system: COR-L23
Outline: as §1

[21] = test system: HCC-366
Outline: as §1

Q: With `Cc1cn(-c2cc(NC(=O)c3ccc(C)c(Nc4nccc(-c5cccnc5)n4)c3)cc(C(F)(F)F)c2)cn1` [Nilotinib] + Cc1nc(NC(=O)N2CCC[C@H]2C(N)=O)sc1-c1ccnc(C(C)(C)C(F)(F)F)c1 [Alpelisib] (partner 2 µM) as the compound, how does the relative viability ([1]; first compound 0.001 µM) read?
A: Its relative viability is 0.788.

Q: What about the relative viability ([1]; first compound 0.003162 µM) of the same compound?
A: Its relative viability is 0.831.

Q: What about the relative viability ([1]; first compound 0.01 µM) of the same compound?
A: Its relative viability is 0.838.

Q: And the relative viability ([1]; first compound 0.03162 µM)?
A: Its relative viability is 0.727.

Q: What about the relative viability ([1]; first compound 0.1 µM) of the same compound?
A: The relative viability was 0.777.

Q: And the relative viability ([2]; first compound 0.003162 µM)?
A: Its relative viability is 1.67.

Q: What about the relative viability ([2]; first compound 0.01 µM) of the same compound?
A: The relative viability was 1.92.

Q: What about the relative viability ([2]; first compound 0.03162 µM) of the same compound?
A: Its relative viability is 0.653.

Q: And the relative viability ([2]; first compound 0.1 µM)?
A: Its relative viability is 1.22.

Q: What about the relative viability ([3]; first compound 0.001 µM) of the same compound?
A: Its relative viability is 0.829.

Q: What about the relative viability ([3]; first compound 0.003162 µM) of the same compound?
A: The relative viability was 1.17.

Q: What about the relative viability ([3]; first compound 0.01 µM) of the same compound?
A: The relative viability was 1.39.

Q: What about the relative viability ([3]; first compound 0.03162 µM) of the same compound?
A: The relative viability was 0.75.

Q: What about the relative viability ([3]; first compound 0.1 µM) of the same compound?
A: The relative viability was 0.971.

Q: What about the relative viability ([4]; first compound 0.001 µM) of the same compound?
A: The relative viability was 0.987.

Q: What about the relative viability ([4]; first compound 0.003162 µM) of the same compound?
A: Its relative viability is 1.27.

Q: And the relative viability ([4]; first compound 0.01 µM)?
A: Its relative viability is 1.26.

Q: And the relative viability ([4]; first compound 0.03162 µM)?
A: The relative viability was 1.05.

Q: And the relative viability ([4]; first compound 0.1 µM)?
A: The relative viability was 0.982.

Q: What about the relative viability ([5]; first compound 0.001 µM) of the same compound?
A: Its relative viability is 0.928.

Q: And the relative viability ([5]; first compound 0.003162 µM)?
A: Its relative viability is 1.15.

Q: What about the relative viability ([5]; first compound 0.01 µM) of the same compound?
A: Its relative viability is 1.07.

Q: And the relative viability ([5]; first compound 0.1 µM)?
A: The relative viability was 1.22.

Q: And the relative viability ([6]; first compound 0.001 µM)?
A: Its relative viability is 0.457.

Q: And the relative viability ([6]; first compound 0.003162 µM)?
A: Its relative viability is 0.541.

Q: And the relative viability ([6]; first compound 0.01 µM)?
A: Its relative viability is 0.481.

Q: What about the relative viability ([6]; first compound 0.03162 µM) of the same compound?
A: Its relative viability is 0.299.

Q: And the relative viability ([6]; first compound 0.1 µM)?
A: The relative viability was 0.478.

Q: And the relative viability ([7]; first compound 0.001 µM)?
A: Its relative viability is 0.929.

Q: And the relative viability ([7]; first compound 0.003162 µM)?
A: Its relative viability is 1.03.

Q: What about the relative viability ([7]; first compound 0.01 µM) of the same compound?
A: The relative viability was 1.06.

Q: What about the relative viability ([7]; first compound 0.03162 µM) of the same compound?
A: Its relative viability is 0.632.

Q: What about the relative viability ([7]; first compound 0.1 µM) of the same compound?
A: The relative viability was 0.719.

Q: What about the relative viability ([8]; first compound 0.001 µM) of the same compound?
A: Its relative viability is 0.738.

Q: What about the relative viability ([8]; first compound 0.003162 µM) of the same compound?
A: Its relative viability is 0.905.

Q: What about the relative viability ([8]; first compound 0.01 µM) of the same compound?
A: The relative viability was 0.839.

Q: What about the relative viability ([8]; first compound 0.03162 µM) of the same compound?
A: Its relative viability is 0.849.

Q: What about the relative viability ([8]; first compound 0.1 µM) of the same compound?
A: The relative viability was 0.79.

Q: And the relative viability ([9]; first compound 0.001 µM)?
A: Its relative viability is 0.692.

Q: What about the relative viability ([9]; first compound 0.003162 µM) of the same compound?
A: Its relative viability is 0.638.

Q: What about the relative viability ([9]; first compound 0.01 µM) of the same compound?
A: The relative viability was 0.682.

Q: What about the relative viability ([9]; first compound 0.03162 µM) of the same compound?
A: The relative viability was 0.551.

Q: And the relative viability ([9]; first compound 0.1 µM)?
A: The relative viability was 0.507.

Q: And the relative viability ([10]; first compound 0.001 µM)?
A: The relative viability was 0.862.

Q: What about the relative viability ([10]; first compound 0.003162 µM) of the same compound?
A: Its relative viability is 1.13.

Q: And the relative viability ([10]; first compound 0.01 µM)?
A: The relative viability was 0.982.

Q: What about the relative viability ([10]; first compound 0.03162 µM) of the same compound?
A: Its relative viability is 0.707.

Q: And the relative viability ([10]; first compound 0.1 µM)?
A: The relative viability was 0.785.

Q: And the relative viability ([11]; first compound 0.001 µM)?
A: The relative viability was 0.728.

Q: And the relative viability ([11]; first compound 0.003162 µM)?
A: The relative viability was 0.893.

Q: And the relative viability ([11]; first compound 0.01 µM)?
A: Its relative viability is 0.883.

Q: And the relative viability ([11]; first compound 0.03162 µM)?
A: The relative viability was 0.668.

Q: And the relative viability ([11]; first compound 0.1 µM)?
A: Its relative viability is 0.787.

Q: What about the relative viability ([12]; first compound 0.001 µM) of the same compound?
A: The relative viability was 0.889.

Q: And the relative viability ([12]; first compound 0.003162 µM)?
A: The relative viability was 0.843.

Q: What about the relative viability ([12]; first compound 0.01 µM) of the same compound?
A: Its relative viability is 1.13.

Q: And the relative viability ([12]; first compound 0.03162 µM)?
A: Its relative viability is 0.742.

Q: What about the relative viability ([12]; first compound 0.1 µM) of the same compound?
A: The relative viability was 0.7.

Q: What about the relative viability ([13]; first compound 0.001 µM) of the same compound?
A: The relative viability was 0.761.

Q: What about the relative viability ([13]; first compound 0.003162 µM) of the same compound?
A: Its relative viability is 1.14.

Q: And the relative viability ([13]; first compound 0.01 µM)?
A: Its relative viability is 0.765.

Q: What about the relative viability ([13]; first compound 0.1 µM) of the same compound?
A: Its relative viability is 0.951.

Q: What about the relative viability ([14]; first compound 0.001 µM) of the same compound?
A: The relative viability was 0.941.

Q: And the relative viability ([14]; first compound 0.003162 µM)?
A: The relative viability was 0.925.

Q: What about the relative viability ([14]; first compound 0.01 µM) of the same compound?
A: Its relative viability is 0.87.

Q: And the relative viability ([14]; first compound 0.03162 µM)?
A: Its relative viability is 0.683.

Q: What about the relative viability ([14]; first compound 0.1 µM) of the same compound?
A: The relative viability was 0.587.

Q: What about the relative viability ([15]; first compound 0.001 µM) of the same compound?
A: The relative viability was 0.723.

Q: And the relative viability ([15]; first compound 0.003162 µM)?
A: Its relative viability is 0.915.

Q: What about the relative viability ([15]; first compound 0.01 µM) of the same compound?
A: Its relative viability is 1.06.

Q: And the relative viability ([15]; first compound 0.03162 µM)?
A: Its relative viability is 0.551.

Q: And the relative viability ([15]; first compound 0.1 µM)?
A: Its relative viability is 0.821.

Q: What about the relative viability ([16]; first compound 0.001 µM) of the same compound?
A: Its relative viability is 1.16.

Q: And the relative viability ([16]; first compound 0.003162 µM)?
A: Its relative viability is 0.966.

Q: What about the relative viability ([16]; first compound 0.03162 µM) of the same compound?
A: The relative viability was 1.

Q: And the relative viability ([16]; first compound 0.1 µM)?
A: Its relative viability is 1.22.

Q: And the relative viability ([17]; first compound 0.001 µM)?
A: Its relative viability is 0.915.

Q: What about the relative viability ([17]; first compound 0.003162 µM) of the same compound?
A: Its relative viability is 1.15.

Q: And the relative viability ([17]; first compound 0.01 µM)?
A: The relative viability was 1.41.

Q: And the relative viability ([17]; first compound 0.03162 µM)?
A: Its relative viability is 0.837.

Q: And the relative viability ([17]; first compound 0.1 µM)?
A: Its relative viability is 0.978.

Q: And the relative viability ([18]; first compound 0.001 µM)?
A: Its relative viability is 0.573.

Q: What about the relative viability ([18]; first compound 0.01 µM) of the same compound?
A: The relative viability was 0.719.

Q: What about the relative viability ([18]; first compound 0.03162 µM) of the same compound?
A: Its relative viability is 0.456.

Q: And the relative viability ([18]; first compound 0.1 µM)?
A: The relative viability was 0.395.

Q: And the relative viability ([19]; first compound 0.001 µM)?
A: Its relative viability is 1.01.

Q: What about the relative viability ([19]; first compound 0.003162 µM) of the same compound?
A: Its relative viability is 1.12.

Q: What about the relative viability ([19]; first compound 0.01 µM) of the same compound?
A: The relative viability was 1.03.

Q: And the relative viability ([19]; first compound 0.03162 µM)?
A: Its relative viability is 0.981.

Q: And the relative viability ([19]; first compound 0.1 µM)?
A: Its relative viability is 1.01.

Q: What about the relative viability ([20]; first compound 0.001 µM) of the same compound?
A: Its relative viability is 0.873.

Q: And the relative viability ([20]; first compound 0.03162 µM)?
A: The relative viability was 0.901.

Q: And the relative viability ([20]; first compound 0.1 µM)?
A: Its relative viability is 0.791.

Q: And the relative viability ([21]; first compound 0.001 µM)?
A: The relative viability was 0.312.

Q: What about the relative viability ([21]; first compound 0.003162 µM) of the same compound?
A: Its relative viability is 0.43.

Q: What about the relative viability ([21]; first compound 0.01 µM) of the same compound?
A: Its relative viability is 0.428.

Q: And the relative viability ([21]; first compound 0.03162 µM)?
A: Its relative viability is 0.248.

Q: What about the relative viability ([21]; first compound 0.1 µM) of the same compound?
A: Its relative viability is 0.342.
